Tested on: C. difficile
Settings: hamster; relapse/recurrence of CDAD
Procedure: Compounds were evaluated for their ability to inhibit the activity of C. difficile toxins the hamster model of C. difficile colitis. Male hamsters (80-100 g) were purchased Biobreeders Inc. (Falmouth, Mass.). All animals were maintained in groups of five in microisolator cages on autoclaved bedding (Beta Chips) and given free access to autoclaved chow and autoclaved, filtered water. Animals were rested approximately 1 week following arrival and prior to initiation of a study. A C. difficile strain initially isolated from a human C. difficile colitis was used to infect the animals. This strain (HUC2-4) produces moderate to high levels of toxins in vitro and in vivo. A suspension of 10^6-10^7 bacterial cells/ml was prepared from an overnight broth culture and 0.1 ml was administered by oral gavage on day −1. Twenty-four hours later, each animal was injected subcutaneously with Cleocin Phosphate IV® at a dose of 10 mg/kg. Polymers were administered to groups of ten animals by gavage three times daily (t.i.d). The dose of polymers was 25-100 mg/day, administered in three divided doses of 0.75 ml each. Initiation and duration of dosing varied according to the treatment regimens as described below. Animals were observed daily for morbidity or mortality. Additional parameters assessed were general appearance, time to onset of clinical signs, and presence or absence of diarrhea (“wet tail”). […]

Question: How did the “time to death after discontinuing metronidazole” value turn out when `Cc1ncc([N+](=O)[O-])n1CCO` [metronidazole] was run?
Answer: 3 to 6 days
